Reference: patent US11541062B2, “Methods of treating advanced prostate cancer” (priority 2017, dated 2023)
Positions count from the first letter of the chain named.

What was measured:
[1] = Serum concentration of androgen analogs after intravenous injection, by LC/MS; assay type: in vivo; conditions: mouse, 50 ug, 50 μg intravenous, C57/B6 mice
Protocol: FIG. 8. C57B6 mice were intravenously injected with 50 μg of IVMDHT, IVNDHT, and IVDHT. Blood samples were collected at 1, 2, 4, and 8 hours (n=4) and the serum concentrations of the compounds were analyzed by liquid chromatography mass spectrometry. With reference to 2 hours on FIG. 8, the upper line represents IVMDHT; the middle line represents IVNDHT, and the lower line represents IVDHT.
To assess the stability of different androgen analogs, 50 μg of IVDHT, IVNDHT, and IVMDHT was intravenously injected into C57/B6 mice. Blood samples were collected from the mice at 1, 2, 4, and 8 hours and analyzed by liquid chromatography/mass spectrometry (n=4).

endogenous AR [2] = biological target: T1, endogenous AR (Homo sapiens, UniProt P10275, T878A); assay: AR nuclear translocation, immunostaining with anti-AR antibody and DAPI in LNCaP cells; assay type: cell-based; conditions: 48 hours without androgens, then 8 hours with compound
T1 construct: translocate endogenous AR into the nucleus in LNCaP cells; endogenous in cells; host or cells: LNCaP
T1 sequence (P10275 1-920 T878A): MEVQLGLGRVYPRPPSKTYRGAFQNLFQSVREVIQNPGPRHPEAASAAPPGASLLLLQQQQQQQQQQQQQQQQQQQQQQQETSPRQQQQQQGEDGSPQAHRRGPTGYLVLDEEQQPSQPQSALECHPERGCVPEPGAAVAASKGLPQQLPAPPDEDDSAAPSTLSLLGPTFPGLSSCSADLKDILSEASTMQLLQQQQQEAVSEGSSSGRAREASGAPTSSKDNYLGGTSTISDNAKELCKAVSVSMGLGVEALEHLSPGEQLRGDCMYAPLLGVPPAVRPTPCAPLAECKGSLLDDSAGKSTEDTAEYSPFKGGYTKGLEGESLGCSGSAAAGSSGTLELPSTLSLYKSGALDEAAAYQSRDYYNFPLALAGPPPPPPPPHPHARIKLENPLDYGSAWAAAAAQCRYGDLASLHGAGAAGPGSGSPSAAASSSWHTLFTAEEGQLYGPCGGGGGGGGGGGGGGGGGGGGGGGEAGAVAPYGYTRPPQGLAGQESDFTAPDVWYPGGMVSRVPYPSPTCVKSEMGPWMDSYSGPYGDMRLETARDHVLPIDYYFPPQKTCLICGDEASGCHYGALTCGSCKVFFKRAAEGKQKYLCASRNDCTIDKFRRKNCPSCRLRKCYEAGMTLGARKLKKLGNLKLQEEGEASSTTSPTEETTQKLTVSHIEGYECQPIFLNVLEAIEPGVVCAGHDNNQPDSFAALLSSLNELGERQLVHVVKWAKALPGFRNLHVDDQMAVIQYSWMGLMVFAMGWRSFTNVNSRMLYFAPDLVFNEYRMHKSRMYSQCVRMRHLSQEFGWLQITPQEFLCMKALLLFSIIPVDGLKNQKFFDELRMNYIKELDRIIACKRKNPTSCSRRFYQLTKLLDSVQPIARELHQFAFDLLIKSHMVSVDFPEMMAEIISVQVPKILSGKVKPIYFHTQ
Protocol: (§1) Cells were immunostained with an anti-AR antibody and 4′,6-diamidino-2-phenylindole (DAPI) to determine the nuclear location of the AR. FIG. 5D: CV-1 cells were transiently transfected in 48-well plates with 100 ng of luciferase reporter plasmid regulated by 3 androgen response elements (3ARE), 25 ng of pSV40 β-gal, or with or without 20 ng of the human AR expression vector. […] Then whole cell lysates were prepared to assess luciferase and β-gal activities. Transfection experiments were repeated three times in triplicate. Relative luciferase units (RLUs) were determined from three independent transfections and are presented as the mean+/−SEM.
(§2) Experiments were performed to assess the biological activity of IVMDHT. […] To determine the activity of IVMDHT in activating AR-mediated transcription, CV1 (FIG. 5D) and LNCaP cells (FIG. 5E) were transfected with an androgen-inducible luciferase reporter vector driven by AREs together either with or without the human AR expression vector.

human AR = biological target: T2, human AR (Homo sapiens, UniProt P10275); assay: Androgen-inducible (3ARE) luciferase reporter in CV-1 cells transfected with human AR expression vector; assay type: cell-based; conditions: CV1 cells, 1 nM and 10 nM, 24 hours
T2 construct: expressed in transfected cells; host or cells: CV-1
T2 sequence (P10275 1-920): T1 sequence (P10275 1-920 T878A) with A878T
Protocol: as §1, §2

endogenous AR [3] = biological target: T1, endogenous AR; assay: Androgen-inducible (3ARE) luciferase reporter in LNCaP cells, endogenous AR transcriptional activity; assay type: cell-based; conditions: no AR expression vector, 1 nM and 10 nM, 24 hours
Protocol: as §1, §2

AR = biological target: T3, AR (Mus musculus, UniProt P19091); assay: microPET imaging in intact and castrated C57/B6 male mice; assay type: in vivo; conditions: 1.2 MBq intraperitoneal, images at 1, 2 and 6 hours
T3 construct: from tissue; host or cells: living C57/B6 male mice, intact or castrated; prostate and other organs
T3 sequence (P19091 1-899): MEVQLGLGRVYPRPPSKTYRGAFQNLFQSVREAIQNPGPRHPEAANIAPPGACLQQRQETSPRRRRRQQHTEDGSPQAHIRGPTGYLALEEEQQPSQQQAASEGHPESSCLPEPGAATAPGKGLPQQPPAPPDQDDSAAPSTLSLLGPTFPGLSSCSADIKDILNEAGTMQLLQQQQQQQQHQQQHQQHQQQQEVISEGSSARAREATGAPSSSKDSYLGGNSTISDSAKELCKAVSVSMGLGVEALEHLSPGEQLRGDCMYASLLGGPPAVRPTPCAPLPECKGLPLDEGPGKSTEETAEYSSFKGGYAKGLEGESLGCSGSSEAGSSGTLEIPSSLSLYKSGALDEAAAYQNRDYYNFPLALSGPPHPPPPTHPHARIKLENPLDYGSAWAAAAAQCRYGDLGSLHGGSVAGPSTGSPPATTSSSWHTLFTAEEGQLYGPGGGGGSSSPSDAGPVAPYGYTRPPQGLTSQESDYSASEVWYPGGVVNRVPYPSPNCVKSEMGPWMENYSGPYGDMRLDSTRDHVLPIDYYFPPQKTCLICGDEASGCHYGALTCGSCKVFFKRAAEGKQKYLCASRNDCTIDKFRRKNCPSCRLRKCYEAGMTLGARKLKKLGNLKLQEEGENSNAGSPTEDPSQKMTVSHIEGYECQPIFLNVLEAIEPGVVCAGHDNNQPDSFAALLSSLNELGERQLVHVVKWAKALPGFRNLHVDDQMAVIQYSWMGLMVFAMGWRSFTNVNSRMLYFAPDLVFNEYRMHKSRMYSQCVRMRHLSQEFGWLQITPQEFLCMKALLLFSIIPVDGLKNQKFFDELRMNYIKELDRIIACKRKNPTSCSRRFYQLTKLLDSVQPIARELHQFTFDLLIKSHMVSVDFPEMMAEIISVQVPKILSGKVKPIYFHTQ
Protocol: FIGS. 6A-6E. The androgen analog ^124IVMDHT was intravenously injected into the tail-vein of intact (FIG. 6A) and castrated mice (FIG. 6B) and imaged at 1 hour (FIG. 6A panel 1, FIG. 6B panel 1), 2 hours (FIG. 6A panel 2, FIG. 6B panel 2) and 6 hours (FIG. 6A panel 3, FIG. 6B panel 3). […] The mice were then analyzed at 1 hour (FIG. 6D panel 1, FIG. 6E panel 1), 2 hour (FIG. 6D panel 2, FIG. 6E panel 2) and 6 hours (FIG. 6D panel 3, FIG. 6E panel 3). Positive images are shown with arrows.
In this example, microPET imaging and biodistribution assays will be performed using three available and biologically relevant animal models to fully examine the specific binding affinity of IVMDHT with the AR in vivo. […] Tissue samples were weighed and counted and the results expressed as % ID/g and total counts per organ. […] The biodistribution results will be analyzed in prostate and other non-AR enrich tissues from intact and castrated mice to determine specific uptake of ^124IVMDHT.
To determine the specific binding affinity of IVMDHT with the AR in vivo, microPET imaging and biodistribution assays were performed. The binding specificity of ^124IVMDHT in 4-month-old castrated and intact C57/B6 male mice (n=4 per group) was evaluated. […]
Using a similar experimental approach, IVNDHT was assessed in C57/B6 male mice. […] The intake rate of ^124IVNDHT was further assessed by intraperitoneal injection. […]

| Structure (SMILES) | half-life [1] | nuclear location of the AR protein (endogenous AR [2]) | AR-mediated luciferase activity (human AR) | AR-mediated luciferase activity (endogenous AR [3]) | microPET signal in the vicinity of the bladder/prostate (AR) |
| --- | --- | --- | --- | --- | --- |
| C[C@]12CC[C@@H]3C4CCC(=O)C[C@@H]4C[C@@H](/C=C/I)[C@H]3[C@@H]1CC[C@@H]2O (stereo partly drawn) [IVNDHT, 7α-(E-2′-iodovinyl)-19-nor-5α-dihydrotestosterone] | ~1.5 h |  |  |  |  |
| C[C@]12CCC(=O)C[C@@H]1C[C@@H](/C=C/I)[C@@H]1[C@@H]2CC[C@]2(C)[C@@H](O)CC[C@@H]12 [IVDHT, 7α-(E-2′-iodovinyl)-5α-dihydrotestosterone] | ~1.5 h |  |  |  |  |
| C[C@]12CCC(=O)C[C@@H]1C[C@@H](/C=C/I)[C@@H]1[C@@H]2CC[C@@]2(C)[C@H]1CC[C@]2(C)O [IVMDHT, 7α-(E-2′-iodovinyl)-17α-methyl-5α-dihydrotestosterone] | ~1.5 h | uniform nuclear staining of the AR protein | increase in AR-mediated luciferase activity | increase in AR-mediated luciferase activity | low dosage and intraperitoneal injections extend the specific intake |
